The record followed here is PubChem BioAssay AID652273 (Sanford-Burnham Center for Chemical Genomics, 2013).

Active and inactive are the calls of the source.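 Rule for the calls: active = compounds lowering heat-shock reporter fluorescence with mean IC50 at or below 15 µM, flagged as SKN-1 screen artifacts; inactive = the rest.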

This experiment relates to C. elegans VP596 hsp-16.2 GFP/RFP after heat shock. Briefly: hsp-16.2 heat-shock reporter inhibition in nematodes, SAR follow-up, counter-screen for SKN-1 inhibitor project, whole organism, C. elegans VP596, GFP/RFP ratio, round 2 (AID 652273). In general terms: A counterscreen serves to expose hits that act by an unwanted route or on another target.
What is called IC50 is the point on the concentration scale where inhibition reaches its midpoint. For the molecule `Clc1ccc(COc2c(Cl)cc(CNC3CCCC3)cc2Cl)cc1`, the IC50 was > 64 µM (inactive).
With `COc1cc(CNC2CCCC2)cc(F)c1OCc1ccc(Cl)cc1`, the IC50 is > 64 µM (inactive).
For `CCOc1cc(CNC2CCCC2)cc(Cl)c1OCc1ccc(Br)cc1` the value was > 64 µM (inactive).
For `COc1cc(CNC2CCCC2)cc(Cl)c1OCc1ccc(Cl)cc1` the value was > 64 µM (inactive).
In the case of `CCOc1cc(CN(C(C)=O)C2CCCC2)cc(Cl)c1OCc1ccc(Cl)cc1`, the IC50 is > 64 µM (inactive).
As for `C#CCNCc1cc(Cl)c(OCc2ccc(Cl)cc2)c(OCC)c1`, the figure is > 64 µM (inactive); as for `C=CCNCc1cc(Cl)c(OCc2ccc(Cl)cc2)c(OCC)c1`, > 64 µM (inactive).
`Cc1cc(CNC2CCCC2)cc(C)c1OCc1ccc(Cl)cc1`: the IC50 is > 64 µM (inactive).
For `CCOc1cc(CN2CCN(C)CC2)cc(Cl)c1OCc1ccc(F)cc1` the value was > 64 µM (inactive); for `CCOc1cc(CNC)cc(Cl)c1OCc1ccc(Cl)cc1`, > 64 µM (inactive); for `CCOc1cc(CNC2CC2)cc(Cl)c1OCc1ccc(C#N)cc1`, > 64 µM (inactive).
On to `CCOc1cc(CNC2CC2)cc(Cl)c1OCc1ccc(Cl)cc1F`, for which the IC50 is > 64 µM (inactive).
As to `CCOc1cc(CN2CCCCC2)cc(Cl)c1OCc1ccc(F)cc1`, the IC50 is > 64 µM (inactive).
For `CCOc1cc(CN2CCN(C)CC2)cc(Cl)c1OCc1ccc(Cl)cc1`, the IC50 was > 64 µM (inactive).
For `CCOc1cc(CN2CCCC2)cc(Cl)c1OCc1ccc(Cl)cc1` the value was > 64 µM (inactive).
For `CCOc1cc(CNC2CC2)cc(Cl)c1OCc1ccc(Cl)cc1`, the IC50 was > 64 µM (inactive).
Turning to `CCOc1cc(CN2CCCC2)cc(Cl)c1OCc1ccc(F)cc1`, the IC50 was > 64 µM (inactive).
As for `CCOc1cc(CNC2CCCC2)cc(Cl)c1OCc1ccc(C#N)cc1`, the figure is > 64 µM (inactive); as for `CCOc1cc(CNC2CCCC2)cc(Cl)c1OCc1ccc(Cl)cc1F`, > 64 µM (inactive); as for `COc1cc(CNC2CCCC2)cc(Br)c1OCc1ccc(Cl)cc1`, > 64 µM (inactive).
As for `CCOc1cc(CN2CCOCC2)cc(Cl)c1OCc1ccc(Cl)cc1`, the IC50 is > 64 µM (inactive).
As for `CCOc1cc(CNC2CC2)cc(Cl)c1OCc1ccc(Br)cc1`, the figure is > 64 µM (inactive).
As for `CCOc1cc(CN2CCCCC2)cc(Cl)c1OCc1ccc(Cl)cc1`, the figure is > 64 µM (inactive); as for `CCOc1cc(CN2CCOCC2)cc(Cl)c1OCc1ccc(F)cc1`, > 64 µM (inactive); as for `CCCNCc1cc(Cl)c(OCc2ccc(Cl)cc2)c(OCC)c1`, > 64 µM (inactive).
As for `CCOc1cc(CNCC2CC2)cc(Cl)c1OCc1ccc(Cl)cc1`, the figure is > 64 µM (inactive); as for `CCOc1cc(CN(C)C2CCCC2)cc(Cl)c1OCc1ccc(Cl)cc1`, > 64 µM (inactive).
